Source: patent publication US20230059009A1, “INHIBITORS OF LIN28 AND METHODS OF USE THEREOF” (The Regents of the University of California, priority 2019, published 2023)

Legend:
22RV1 = test: Cell viability, MTT assay, 22RV1; assay type: cell-based; details: 22RV1 (Prostate), 96 hr
Description: (§1) To measure cell viability, cell titer glow (CTG, Promega CellTiter-Glo 2.0 Assay) and MTT assays (SigmaAldrich, Cell Proliferation Kit I) were performed. Briefly, cells were serum starved overnight prior to seeding in 96-well plates. Following 24 h incubation, cells were treated with increasing concentrations of JGJ compounds for 96 hr. At assay read-out, CellTiter-Glo reagent was added and luminescence was measured after 10-minutes incubation at room temperature. For the MTT assay, MTT labeling reagent was added and incubated for 4 h. Subsequently, medium was removed and 50 μL DMSO was added to solubilize the crystals, and absorbance was measured at 570 nm. Cell viability was calculated as (Sample-Background)/(Control-Background).

LNCaP = test: Cell viability, MTT assay, LNCaP; assay type: cell-based; details: LNCaP (Prostate)
Description: as §1

DU145 = test: Cell viability, MTT assay, DU145; assay type: cell-based; details: Homo sapiens, DU-145, DU145 (Prostate)
Description: as §1, with “(Sample-Background)/(Control-Background). Current standard of care drugs, Enzalutamide, Palbociclib and Cetuximab were used as comparative controls.” for “(Sample-Background)/(Control-Background).”

H1975 = test: Cell viability, MTT assay, H1975; assay type: cell-based
Description: as §1

H1568 = test: Cell viability, MTT assay, H1568; assay type: cell-based
Description: as §1, with “(Sample-Background)/(Control-Background). Current standard of care drugs, Enzalutamide, Palbociclib and Cetuximab were used as comparative controls.” for “(Sample-Background)/(Control-Background).”

A549 = test: Cell viability, MTT assay, A549; assay type: cell-based; details: A549 (Lung)
Description: as §1

H23 = test: Cell viability, MTT assay, H23; assay type: cell-based
Description: as §1, with “(Sample-Background)/(Control-Background). Current standard of care drugs, Enzalutamide, Palbociclib and Cetuximab were used as comparative controls.” for “(Sample-Background)/(Control-Background).”

H460 = test: Cell viability, MTT assay, H460; assay type: cell-based
Description: as §1, with “(Sample-Background)/(Control-Background). Current standard of care drugs, Enzalutamide, Palbociclib and Cetuximab were used as comparative controls.” for “(Sample-Background)/(Control-Background).”

BT-549 = test: Cell viability, CTG, BT-549; assay type: cell-based; details: BT-549 (Breast)
Description: as §1, with “(Sample-Background)/(Control-Background). Current standard of care drugs, Enzalutamide, Palbociclib and Cetuximab were used as comparative controls.” for “(Sample-Background)/(Control-Background).”

MDA-MB231 = test: Cell viability, MTT assay, MDA-MB231; assay type: cell-based
Description: as §1, with “(Sample-Background)/(Control-Background). Current standard of care drugs, Enzalutamide, Palbociclib and Cetuximab were used as comparative controls.” for “(Sample-Background)/(Control-Background).”

MCF7 = test: Cell viability, MTT assay, MCF7; assay type: cell-based; details: MCF7 (Breast)
Description: as §1, with “(Sample-Background)/(Control-Background). Current standard of care drugs, Enzalutamide, Palbociclib and Cetuximab were used as comparative controls.” for “(Sample-Background)/(Control-Background).”

HCT-116 = test: Cell viability, CTG, HCT-116; assay type: cell-based; details: HCT-116 (Colon)
Description: as §1, with “(Sample-Background)/(Control-Background). Current standard of care drugs, Enzalutamide, Palbociclib and Cetuximab were used as comparative controls.” for “(Sample-Background)/(Control-Background).”

SW620 = test: Cell viability, MTT assay, SW620; assay type: cell-based
Description: as §1, with “(Sample-Background)/(Control-Background). Current standard of care drugs, Enzalutamide, Palbociclib and Cetuximab were used as comparative controls.” for “(Sample-Background)/(Control-Background).”

SW480 [1] = test: Cell viability, MTT assay, SW480; assay type: cell-based; details: SW480 (Colon)
Description: as §1, with “(Sample-Background)/(Control-Background). Current standard of care drugs, Enzalutamide, Palbociclib and Cetuximab were used as comparative controls.” for “(Sample-Background)/(Control-Background).”

SW480 [2] = test: Cell viability, CTG, SW480; assay type: cell-based; details: SW480 (Colon)
Description: as §1

ASPC-1 = test: Cell viability, CTG, ASPC-1; assay type: cell-based
Description: as §1, with “(Sample-Background)/(Control-Background). Current standard of care drugs, Enzalutamide, Palbociclib and Cetuximab were used as comparative controls.” for “(Sample-Background)/(Control-Background).”

CAPAN-1 = test: Cell viability, CTG, CAPAN-1; assay type: cell-based; details: CAPAN-1 (Pancreatic)
Description: as §1, with “(Sample-Background)/(Control-Background). Current standard of care drugs, Enzalutamide, Palbociclib and Cetuximab were used as comparative controls.” for “(Sample-Background)/(Control-Background).”

Caco2 permeability = assay type: in vitro ADME; details: human, Caco-2, Conc. 30 uM; for recovery at 30 uM: read-out: Caco2 Mean A-B % Recovery
[3] = Microsomal stability, CD-1 Mouse; assay type: in vitro ADME; details: for CLint scaled at 30 uM / half-life at 30 uM: microsomes; for half-life at 30 uM: read-out: Microsomal stability T½
CYP 2B6 = molecular target: T1, CYP 2B6 (Homo sapiens, UniProt P20813); test: CYP inhibition 2B6; assay type: in vitro ADME; design: unit not given here; details: Conc. 30 uM
T1 sequence (P20813 1-491): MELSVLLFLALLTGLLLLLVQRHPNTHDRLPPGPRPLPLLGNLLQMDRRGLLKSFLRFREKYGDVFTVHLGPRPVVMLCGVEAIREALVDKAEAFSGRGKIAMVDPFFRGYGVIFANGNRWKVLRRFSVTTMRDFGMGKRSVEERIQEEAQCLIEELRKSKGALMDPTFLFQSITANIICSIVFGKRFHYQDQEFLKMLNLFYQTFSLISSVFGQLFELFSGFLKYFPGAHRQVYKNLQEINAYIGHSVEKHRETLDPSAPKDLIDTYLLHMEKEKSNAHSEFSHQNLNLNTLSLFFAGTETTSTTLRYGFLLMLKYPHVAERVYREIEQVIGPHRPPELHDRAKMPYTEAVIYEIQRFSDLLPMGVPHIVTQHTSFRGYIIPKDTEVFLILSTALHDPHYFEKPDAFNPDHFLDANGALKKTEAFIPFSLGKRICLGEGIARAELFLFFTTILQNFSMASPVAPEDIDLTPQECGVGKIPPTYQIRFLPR

CYP 2C9 = CYP 2C9 (Homo sapiens, UniProt P11712); test: CYP inhibition 2C9; assay type: in vitro ADME; design: unit not given here; details: Conc. 30 uM
Chain of CYP 2C9 (P11712 whole entry): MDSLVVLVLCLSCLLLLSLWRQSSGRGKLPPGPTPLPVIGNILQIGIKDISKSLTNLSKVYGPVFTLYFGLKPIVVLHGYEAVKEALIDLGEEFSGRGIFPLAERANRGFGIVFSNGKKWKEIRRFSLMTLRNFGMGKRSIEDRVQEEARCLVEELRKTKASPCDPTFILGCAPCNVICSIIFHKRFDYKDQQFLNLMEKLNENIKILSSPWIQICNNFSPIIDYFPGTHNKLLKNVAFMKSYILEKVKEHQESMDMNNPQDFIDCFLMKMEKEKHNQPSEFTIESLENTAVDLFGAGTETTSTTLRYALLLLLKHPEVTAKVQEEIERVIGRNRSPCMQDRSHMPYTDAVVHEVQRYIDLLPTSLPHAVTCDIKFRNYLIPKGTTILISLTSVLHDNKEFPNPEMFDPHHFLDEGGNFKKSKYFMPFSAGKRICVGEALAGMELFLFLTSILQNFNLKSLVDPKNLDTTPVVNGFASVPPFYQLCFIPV

CYP 2D6 = CYP 2D6 (Homo sapiens, UniProt P10635); test: CYP inhibition 2D6; assay type: in vitro ADME; design: unit not given here; details: Conc. 30 uM
Chain of CYP 2D6 (P10635 whole entry): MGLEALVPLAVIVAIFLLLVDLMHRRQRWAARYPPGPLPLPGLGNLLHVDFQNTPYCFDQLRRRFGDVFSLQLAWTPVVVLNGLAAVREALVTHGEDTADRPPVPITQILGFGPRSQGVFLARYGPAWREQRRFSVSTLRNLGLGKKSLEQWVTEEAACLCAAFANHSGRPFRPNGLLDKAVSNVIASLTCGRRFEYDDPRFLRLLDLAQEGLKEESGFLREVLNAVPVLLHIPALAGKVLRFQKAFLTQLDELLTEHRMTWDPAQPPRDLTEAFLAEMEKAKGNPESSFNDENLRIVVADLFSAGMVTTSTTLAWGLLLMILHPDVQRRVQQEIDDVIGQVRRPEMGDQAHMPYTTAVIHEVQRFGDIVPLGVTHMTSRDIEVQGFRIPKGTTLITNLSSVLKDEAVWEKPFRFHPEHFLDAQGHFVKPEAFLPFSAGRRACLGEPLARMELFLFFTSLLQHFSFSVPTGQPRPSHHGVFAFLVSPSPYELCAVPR

[4] = Homo sapiens, NCI-H1975, H1975 (Lung)
[5] = Homo sapiens, NCI-H23, H23 (Lung)
[6] = Homo sapiens, NCI-H460, H460 (Lung)
[7] = Homo sapiens, MDA-MB-231, MDA-MB231 (Breast)
[8] = Homo sapiens, SW-620, SW620 (Colon)
[9] = Homo sapiens, ASPC1, ASPC-1 (Pancreatic)

Row | IC50 (22RV1; Homo sapiens) [µM] | IC50 (LNCaP; Homo sapiens) [µM] | IC50 (DU145) [µM] | IC50 (H1975; [4]) [µM] | IC50 (A549; Homo sapiens) [µM] | IC50 (H460; [6]) [µM] | IC50 (BT-549; Homo sapiens) [µM] | IC50 (MDA-MB231; [7]) [µM] | IC50 (MCF7; Homo sapiens) [µM] | IC50 (HCT-116; Homo sapiens) [µM] | IC50 (SW620; [8]) [µM] | IC50 (SW480 [1]; Homo sapiens) [µM] | IC50 (SW480 [2]; Homo sapiens) [µM] | IC50 (ASPC-1; [9]) [µM] | Papp A→B at 30 uM (Caco2 permeability) [×10⁻⁶ cm/s] | Papp B→A at 30 uM (Caco2 permeability) [×10⁻⁶ cm/s] | efflux ratio at 30 uM (Caco2 permeability) | recovery at 30 uM (Caco2 permeability) [%] | SMILES | IC50 (H23; [5]) [µM] | IC50 (CAPAN-1; Homo sapiens) [µM] | other results
1 | 97 | 54 | 5 | 31 | 97 | 512 | 75 | 39 | 45 | 148 | 64 | 64 | 68 | 188 | 36.2 | 30 | 0.829 | 87 | CC(=O)Nc1cccc(-c2ccc3ncc(C)n3n2)c1 [JGJ007, N-(3-(3-Methylimidazo[1,2-b]pyridazin-6-yl)phenyl)acetamide] | 95 | 91 | IC50 (H1568; NCI-H1568, H1568 (Lung)): 47 µM; Microsomal stability % Remaining at T30 ([3]; Conc. 30 uM): T30 = 37.6%; CLint scaled at 30 uM ([3]; Conc. 30 uM): 257 mL/min/kg; half-life at 30 uM ([3]; Conc. 30 uM): 21.2 min; CYP inhibition 2B6 (CYP 2B6): 45.39; CYP inhibition 2C9 (CYP 2C9): 24.65; CYP inhibition 2D6 (CYP 2D6): 54.08
2 | 209 | 83 | 30 | 51 | 93 | 594 | 48 | 145 | 59 | 148 | 62 | 53 | 110 | 157 | 24.1 | 21.1 | 0.874 | 67.3 | Cc1cnc2ccc(-c3cccc(F)c3)nn12 [JGJ015, 6-(3-Fluorophenyl)-3-methylimidazo[1,2-b]pyridazine] | 62 | 137 | Microsomal stability % Remaining at T30 ([3]; Conc. 30 uM): T30 = 2.3%; CLint scaled at 30 uM ([3]; Conc. 30 uM): 988 mL/min/kg; half-life at 30 uM ([3]; Conc. 30 uM): 5.52 min; CYP inhibition 2B6 (CYP 2B6): 67.27; CYP inhibition 2C9 (CYP 2C9): 14.27; CYP inhibition 2D6 (CYP 2D6): 19.38
3 |  |  |  |  |  |  |  |  |  |  |  |  |  |  |  |  |  |  | CC(=O)N(C)c1cccc(-c2ccc3nnc(C)n3n2)c1 [LN1632] |  |  | IC50 (22RV1): 236 µM; IC50 (LNCaP): 110 µM; IC50 (H1975; H1975 (Lung)): 91 µM; IC50 (H1568; H1568 (Lung)): 128 µM; IC50 (A549): 151 µM; IC50 (H23; H23 (Lung)): 167 µM; IC50 (H460; H460 (Lung)): 172 µM; IC50 (BT-549): 151 µM; IC50 (MDA-MB231; MDA-MB231 (Breast)): 136 µM; IC50 (MCF7): 144 µM; IC50 (HCT-116): 158 µM; IC50 (SW620; SW620 (Colon)): 161 µM; IC50 (SW480 [1]): 155 µM; IC50 (SW480 [2]): 168 µM; IC50 (ASPC-1; ASPC-1 (Pancreatic)): 111 µM; IC50 (CAPAN-1): 82 µM; Microsomal stability % Remaining at T30 ([3]; Conc. 100 uM): T30 = 90.2%; Microsomal stability CLint ([3]; Conc. 100 uM): kg) = 27 mL/min/kg; Microsomal stability T½ ([3]; Conc. 100 uM): T½ = 202 min
